Patent publication US20230286983A1 (4E Therapeutics, Inc., priority 2020, published 2023)
Like-named read-outs stand apart in the source and are kept apart here. Values belong to the molecule of their own block, whether it stands above or below them.

Experiments:
[1] = Liver microsome stability, mouse; format: in vitro ADME; conditions: mouse, liver microsomes, mouse liver microsomes, Table 11b; read-out: T1/2
[2] = tested on: P-gp (human MDR1, ABCB1); assay: MDCK-MDR1 permeability (blood brain barrier permeability); format: in vitro ADME, Canine; conditions: dog; for efflux ratio at 5 μM: MDCK-MDR1, 5 μM, read-out: Efflux ratio (ratio B-A/A-B); for Papp A→B at 5 μM: MDCK-MDR1, Apical to basolateral transport; for Papp A→B at 5 μM / Papp B→A at 5 μM: average of two experiments; for Papp B→A at 5 μM: MDCK-MDR1, Basolateral to apical transport
[3] = biological target: MNK1 (Homo sapiens, UniProt Q9BUB5); assay: MNK1 substrate phosphorylation assay; format: biochemical; conditions: recombinant human kinase
[4] = tested on: eIF4E phosphorylation at Serine 209 in the human embryonic kidney (HEK) 293 cell line; assay: eIF4E phosphorylation in HEK 293 cells (fluorescent plate reader); format: cell-based; conditions: Homo sapiens, HEK293, 2 h, eIF4E phosphorylation at Serine 209, 2 hours exposure
Procedure, shortened: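 HEK-293 cells were treated with compound for 2 h, then methanol-fixed and Triton-permeabilized. Ser209 phospho-eIF4E was stained with primary antibody (1:2000, overnight) and an Alexa Fluor 488 secondary. Fluorescence was normalized to DAPI, and IC50 was fitted from concentration-response data.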

[5] = Pharmacokinetic study, 4ET-01-021 with IV and PO dosing; format: in vivo, CD-1 male mice; conditions: for concentration at 24 h: read-out: Clast; for bioavailability: read-out: F (oral bioavailability)
Procedure: 4ET-01-021 was dissolved in 10% dimethylacetamide (DMA)/90% propylene glycol (PG) for oral dosing and 10% DMI (dimethyl isosorbide)/15% EtOH (ethanol)/35% PG (propylene glycol)/40% NS (normal saline) for IV dosing. CD-1 male mice were dosed with 4ET-01-021 at 1.0 mg/kg (IV), 3.0 mg/kg (PO), or 10.0 mg/kg (PO). Plasma was collected at indicated timepoints and plasma concentration of 4ET-01-021 was measured using liquid chromatography-mass spectrometry/mass spectrometry (LC-MS/MS).
In mice, following IV administration with 1.0 mg/kg, plasma concentrations declined in a multiphasic manner with an initial concentration (Co) of 0.860 μg/mL and a last measurable concentration (Clast) of 19.3 ng/mL at 24 h post dose. […] Results are presented in Table 13; mean values averaged for 3 animals are shown.
Results are presented in Table 14; mean values averaged for 3 animals are shown.
Results are presented in Table 15; mean values averaged for 3 animals are shown.

[6] = biological target: MNK2 (Homo sapiens, UniProt Q9HBH9); assay: MNK2 substrate phosphorylation assay; format: biochemical; conditions: recombinant human kinase
[7] = tested on: eIF4E phosphorylation at Serine 209 in Karpas 299; assay: eIF4E phosphorylation in Karpas 299 cells (sandwich ELISA); format: cell-based; conditions: Homo sapiens, read-out: Karpas 299 cell IC50
Procedure: The ability of MNK inhibitors described herein to inhibit eIF4E phosphorylation at Serine 209 in Karpas 299, Human Non-Hodgkin's Ki-positive Large Cell Lymphoma cell line was tested by sandwich enzyme linked immune-absorbance assay.

[8] = biological target: Cdc2-like kinase 4 (CLK4) (Homo sapiens, UniProt Q9HAZ1); assay: Off-target kinase screen CLK4; format: biochemical; conditions: 1 μM test compound
From the text: These kinases were chosen because they are the only known off-target hit kinases for eFT508. These assays were done using recombinant human kinases (CLK4, DRAK1 and PKG2) in a substrate phosphorylation assay. % activity remaining after MNK inhibitor treatment is indicated in Table 12.

[9] = IV 1.0 mg/kg, mean of 3 animals
[10] = male, CD-1, mouse, plasma, po, orally dosed at 3 mg/kg, mean of 3 animals
[11] = male, CD-1, mouse, plasma, po, orally dosed at 10 mg/kg, mean of 3 animals
[12] = male, CD-1, mouse, plasma, IV 1.0 mg/kg, mean of 3 animals
[13] = orally dosed at 3 mg/kg, mean of 3 animals
[14] = orally dosed at 10 mg/kg, mean of 3 animals

Sequence of MNK2 (Q9HBH9 whole entry): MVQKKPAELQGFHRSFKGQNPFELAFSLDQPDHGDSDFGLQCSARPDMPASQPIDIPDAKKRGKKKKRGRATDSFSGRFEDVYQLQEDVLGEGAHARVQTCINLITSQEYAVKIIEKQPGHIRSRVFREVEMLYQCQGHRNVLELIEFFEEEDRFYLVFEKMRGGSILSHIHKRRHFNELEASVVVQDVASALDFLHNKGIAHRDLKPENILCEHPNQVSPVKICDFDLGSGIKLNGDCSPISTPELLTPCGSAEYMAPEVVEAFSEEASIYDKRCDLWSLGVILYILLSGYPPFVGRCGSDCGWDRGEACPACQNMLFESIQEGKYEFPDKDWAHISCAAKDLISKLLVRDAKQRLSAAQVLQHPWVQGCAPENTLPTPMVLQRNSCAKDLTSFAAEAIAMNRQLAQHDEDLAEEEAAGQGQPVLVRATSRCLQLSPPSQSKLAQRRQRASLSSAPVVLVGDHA
Sequence of MNK1 (Q9BUB5 whole entry): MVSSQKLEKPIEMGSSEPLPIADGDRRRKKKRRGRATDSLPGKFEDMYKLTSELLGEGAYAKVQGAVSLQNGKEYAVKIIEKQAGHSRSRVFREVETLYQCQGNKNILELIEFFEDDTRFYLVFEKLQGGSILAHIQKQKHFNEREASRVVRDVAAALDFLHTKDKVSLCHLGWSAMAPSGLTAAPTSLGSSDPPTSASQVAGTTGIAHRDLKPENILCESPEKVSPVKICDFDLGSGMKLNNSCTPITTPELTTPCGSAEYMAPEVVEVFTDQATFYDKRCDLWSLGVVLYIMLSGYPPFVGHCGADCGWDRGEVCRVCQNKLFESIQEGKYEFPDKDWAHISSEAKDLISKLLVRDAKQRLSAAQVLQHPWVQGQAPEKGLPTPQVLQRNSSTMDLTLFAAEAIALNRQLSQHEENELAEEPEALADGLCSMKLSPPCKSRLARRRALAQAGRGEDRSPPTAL
Sequence of Cdc2-like kinase 4 (CLK4) (Q9HAZ1 whole entry): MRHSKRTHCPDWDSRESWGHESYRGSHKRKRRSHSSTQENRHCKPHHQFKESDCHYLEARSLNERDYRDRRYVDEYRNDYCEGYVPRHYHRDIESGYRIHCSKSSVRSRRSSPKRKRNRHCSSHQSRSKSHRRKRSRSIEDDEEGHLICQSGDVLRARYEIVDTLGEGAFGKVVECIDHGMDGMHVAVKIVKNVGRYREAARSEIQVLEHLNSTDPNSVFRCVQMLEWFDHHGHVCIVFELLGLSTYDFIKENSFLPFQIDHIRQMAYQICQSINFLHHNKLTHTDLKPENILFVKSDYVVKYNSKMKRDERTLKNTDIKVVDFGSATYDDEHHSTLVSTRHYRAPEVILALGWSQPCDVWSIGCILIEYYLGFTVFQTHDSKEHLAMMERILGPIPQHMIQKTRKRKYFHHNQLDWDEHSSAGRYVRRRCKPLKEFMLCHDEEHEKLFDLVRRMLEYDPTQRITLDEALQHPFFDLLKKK

half-life [1]: 93 min
efflux ratio at 5 μM [2]: 0.9
Papp A→B at 5 μM [2]: 55.3 ×10⁻⁶ cm/s
Papp B→A at 5 μM [2]: 52 ×10⁻⁶ cm/s
IC50 [3]: 38.7 nM
AUConf/D [5, 9]: 2420 kg·h/kL
Tlast [5, 9]: 24.0 h
V55 [5, 9]: 3.49 L/kg
AUC(0-inf) ([5]; male, CD-1, mouse, plasma, iv, 1 mg/kg, IV 1.0 mg/kg, mean of 3 animals, read-out: AUCinf): 2420 ng·h/mL
AUC(0-inf) ([5]; male, CD-1, mouse, plasma, iv, 1 mg/kg, IV 1.0 mg/kg, read-out: total systemic exposure (AUCinf)): 2420 ng·h/mL
AUC(0-inf) ([5]; male, CD-1, mouse, plasma, po, 3 mg/kg, oral 3 mg/kg, read-out: total systemic exposure (AUCinf)): 4500 ng·h/mL
AUC(0-inf) ([5]; male, CD-1, mouse, plasma, po, 3 mg/kg, orally dosed at 3 mg/kg, mean of 3 animals, read-out: AUCinf): 4500 ng·h/mL
AUC(0-inf) ([5]; male, CD-1, mouse, plasma, po, 10 mg/kg, oral 10 mg/kg, read-out: total systemic exposure (AUCinf)): 12000 ng·h/mL
AUC(0-inf) ([5]; male, CD-1, mouse, plasma, po, 10 mg/kg, orally dosed at 10 mg/kg, mean of 3 animals, read-out: AUCinf): 12000 ng·h/mL
AUC(0-t) [5, 10]: 4130 ng·h/mL
Cmax [5, 10]: 643 ng/mL
MRT inf [5, 10]: 8.41 h
Tmax [5, 10]: 30 min
half-life [5, 10]: 427 min
concentration at 24 h [5, 10]: 36.3 ng/mL
bioavailability [5, 10]: 61.9%
AUC(0-t) [5, 11]: 11000 ng·h/mL
Cmax [5, 11]: 1900 ng/mL
MRT inf [5, 11]: 8.51 h
Tmax [5, 11]: 15 min
half-life [5, 11]: 446 min
concentration at 24 h [5, 11]: 99.5 ng/mL
bioavailability [5, 11]: 49.6%
AUC(0-t) [5, 12]: 2190 ng·h/mL
MRT inf [5, 12]: 8.32 h
half-life [5, 12]: 505 min
clearance ([5]; male, CD-1, mouse, plasma, IV 1.0 mg/kg, mean of 3 animals, read-out: CLp): 6.97 mL/min/kg
concentration at 24 h [5, 12]: 19.3 ng/mL
Vd ([5]; male, CD-1, mouse, plasma, IV 1.0 mg/kg, mean of 3 animals, read-out: Vz): 5.1 L/kg
C0 ([5]; male, CD-1, mouse, plasma, IV 1.0 mg/kg, read-out: initial concentration (Co)): 860 ng/mL
AUCinf/D [5, 13]: 1500 kg·h/kL
Tlast [5, 13]: 24 h
AUCinf/D [5, 14]: 1202 kg·h/kL
Tlast [5, 14]: 24 h
IC50 [6]: 5.8 nM
SMILES: CCC1=CC2(CCC1)NC(=O)c1c(C)cc(Nc3cc(N)ncn3)c(=O)n12 (stereo not shown) [Compound 4ET-01-021, 6′-((6-Aminopyrimidin-4-yl)amino)-3-ethyl-8′-methyl-2′H-spiro[cyclohexane-1,3′-imidazo[1,5-a]pyridin]-2-ene-1′,5′-dione]
IC50 [4]: 6 nM

efflux ratio at 5 μM [2]: 4.6
Papp A→B at 5 μM [2]: 5.4 ×10⁻⁶ cm/s
Papp B→A at 5 μM [2]: 25 ×10⁻⁶ cm/s
IC50 [3]: 31.3 nM
IC50 [7]: 6.2 nM
remaining activity at 1 µM [8]: 54%
IC50 [6]: 2.6 nM
SMILES: Cc1cc(Nc2cc(NC(=O)C3CC3)ncn2)c(=O)n2c1C(=O)NC21CCOCC1 [Compound 4ET-03-009, N-(6-((8-Methyl-1,5-dioxo-1,2′,3′,5,5′,6′-hexahydro-2H-spiro[imidazo[1,5-a]pyridine-3,4′-pyran]-6-yl)amino)pyrimidin-4-yl)cyclopropanecarboxamide]
IC50 [4]: 1.7 nM
